Patent publication US12454531B2, “Substituted piperazine derivatives useful as T cell activators” (BRISTOL-MYERS SQUIBB COMPANY, priority 2019, dated 2025)
Like-named read-outs stand apart in the source and are kept apart here.

Legend:
DGKα = DGKα (Homo sapiens (Human), UniProt P23743); experiment: Assay 1: In Vitro DGK Inhibition Assays, Method A (DGKα LIPGLO, extruded liposome); assay type: biochemical; settings: extruded liposome substrate, 150 μM ATP
Description: (§1) Assay 1: In Vitro DGK Inhibition Assays—Method A
(§2) The DGKα and DGKζ reactions were performed using either extruded liposome (DGKα and DGKζ LIPGLO assays) or detergent/lipid micelle substrate (DGKα and DGKζ assays). The reactions were carried out in 50 mM MOPS pH 7.5, 100 mM NaCl, 10 mM MgCl2, 1 μM CaCl2), and 1 mM DTT (assay buffer). The reactions using a detergent/lipid micelle substrate also contained 50 mM octyl B-D-glucopyranoside. The lipid substrate concentrations were 11 mM PS and 1 mM DAG for the detergent/lipid micelle reactions. The lipid substrate concentrations were 2 mM PS, 0.25 mM DAG, and 2.75 mM PC for the extruded liposome reactions. The reactions were carried out in 150 μM ATP. The enzyme concentrations for the DGKα and DGKζ were 5 nM
(§3) The compound inhibition studies were carried out as follows: 50 nL droplets of each test compound (top concentration 10 mM with 11 point, 3-fold dilution series for each compound) solubilized in DMSO were transferred to wells of a white 1536 well plate (Corning 3725). A 5 mL enzyme/substrate solution at 2× final reaction concentration was prepared by combining 2.5 mL 4× enzyme solution (20 nM DGKα or DGKζ (prepared as described below) in assay buffer) and 2.5 mL of either 4× liposome or 4× detergent/lipid micelle solution (compositions described below) and incubated at room temperature for 10 minutes. Next, 1 μL 2× enzyme/substrate solution was added to wells containing the test compound and reactions were initiated with the addition of 1 μL 300 uM ATP. The reactions were allowed to proceed for 1 hr, after which 2 μL Glo Reagent (Promega V9101) was added and incubated for 40 minutes. Next, 4 μL Kinase Detection Reagent was added and incubated for 30 minutes. Luminescence was recorded using an EnVision microplate reader. […] The compounds were evaluated at 11 concentrations to determine IC50.
(§4) The lipid composition was 5 mol % DAG (Avanti 8008110), 40 mol % PS (Avanti 840035P), and 55 mol % PC (Avanti 850457) at a total lipid concentration of 15.2 mg/mL for the 4× liposome solution. The PC, DAG, and PS were dissolved in chloroform, combined, and dried in vacuo to a thin film. The lipids were hydrated to 20 mM in 50 mM MOPS pH 7.5, 100 mM NaCl, 5 mM MgCl2, and were freeze-thawed five times. The lipid suspension was extruded through a 100 nm polycarbonate filter eleven times. […] The liposome preparation was stored at 4° C. for as long as four weeks.
(§5) Baculovirus amplification was achieved using infected Sf9 cells at 1:1500 virus/cell ratios, and grown for 65 hours at 27° C. post-transfection.
(§6) The cells were lysed using nitrogen cavitation method with a nitrogen bomb (Parr Instruments), and the lysates were clarified by centrifugation. […] The three steps column chromatography included nickel affinity resin capture (i.e. HisTrap FF crude, GE Healthcare), followed by size exclusion chromatography (i.e. HiLoad 26/600 Superdex 200 prep grade, GE Healthcare for DGK-alpha, and HiPrep 26/600 Sephacryl S 300_HR, GE Healthcare for DGK-zeta). The third step was ion exchange chromatography, and differed for the two isoforms. DGKα was polished using Q-Sepharose anion exchange chromatography (GE Healthcare). DGKζ was polished using SP Sepharose cation exchange chromatography (GE Healthcare). The proteins were delivered at concentrations of ≥2 mg/mL. The formulation buffers were identical for both proteins: 50 mM Hepes, pH 7.2, 500 mM NaCl, 10% v/v glycerol, 1 mM TCEP, and 0.5 mM EDTA.

DGKζ = DGKζ (Homo sapiens (Human), UniProt Q13574); experiment: Assay 1 or 2: In Vitro DGK Inhibition Assays (DGKζ LIPGLO, extruded liposome); assay type: biochemical; settings: extruded liposome substrate, 150 μM ATP
Description: as §1, §2, §3, §4, §5, §6
Assay 2: In Vitro DGK Inhibition Assays—Method B
The DGKα and DGKζ reactions were performed using either extruded liposome (DGKα and DGKζ LIPGLO assays) or detergent/lipid micelle substrate (DGKα and DGKζ assays).

Human whole blood IFN-γ = experiment: Assay 10: Human Whole Blood IFN-γ Assay; assay type: cell-based; settings: anti-CD3 and anti-CD28 stimulation, 100% = 3 μM reference compound, read-out: INFg Whole Blood Normalized Agonist EC50
Description: Assay 10: Human Whole Blood IFN-γ Assay
Human venous whole blood (22.5 μL per well), obtained from healthy donors, was pre-treated with compounds for one hour at 37° C. in a humidified 95% air/5% CO2 incubator. The blood was stimulated with 2.5 μL anti-human CD3 and anti-CD28 mAb at a final concentration of 1 μg/mL each for 24 hours at 37° C. IFN-7 in the supernatants was measured using AlphLISA kit (Cat #AL217).

Chain of DGKα (P23743 whole entry): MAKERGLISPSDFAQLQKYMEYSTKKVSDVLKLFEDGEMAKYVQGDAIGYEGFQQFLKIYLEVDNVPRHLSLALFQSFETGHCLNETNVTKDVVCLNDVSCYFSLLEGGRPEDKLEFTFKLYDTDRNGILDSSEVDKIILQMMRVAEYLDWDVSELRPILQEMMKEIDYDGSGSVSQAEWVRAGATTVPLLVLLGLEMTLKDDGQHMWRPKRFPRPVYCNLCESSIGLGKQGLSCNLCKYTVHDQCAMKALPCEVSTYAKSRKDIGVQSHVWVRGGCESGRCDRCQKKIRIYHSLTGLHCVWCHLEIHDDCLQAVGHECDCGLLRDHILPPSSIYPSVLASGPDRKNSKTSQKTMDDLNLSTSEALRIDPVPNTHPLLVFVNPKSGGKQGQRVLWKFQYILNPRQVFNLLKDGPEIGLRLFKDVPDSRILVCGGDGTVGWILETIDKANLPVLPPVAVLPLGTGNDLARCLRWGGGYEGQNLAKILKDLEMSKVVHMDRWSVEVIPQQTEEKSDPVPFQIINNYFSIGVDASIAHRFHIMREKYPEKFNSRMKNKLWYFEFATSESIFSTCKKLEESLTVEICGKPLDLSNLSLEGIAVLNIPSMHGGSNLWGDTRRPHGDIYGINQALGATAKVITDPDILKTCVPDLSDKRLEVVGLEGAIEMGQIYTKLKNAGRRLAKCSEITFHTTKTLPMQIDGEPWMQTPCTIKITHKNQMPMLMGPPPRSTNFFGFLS
Chain of DGKζ (Q13574 other isoform, or with tags, fused parts or gaps): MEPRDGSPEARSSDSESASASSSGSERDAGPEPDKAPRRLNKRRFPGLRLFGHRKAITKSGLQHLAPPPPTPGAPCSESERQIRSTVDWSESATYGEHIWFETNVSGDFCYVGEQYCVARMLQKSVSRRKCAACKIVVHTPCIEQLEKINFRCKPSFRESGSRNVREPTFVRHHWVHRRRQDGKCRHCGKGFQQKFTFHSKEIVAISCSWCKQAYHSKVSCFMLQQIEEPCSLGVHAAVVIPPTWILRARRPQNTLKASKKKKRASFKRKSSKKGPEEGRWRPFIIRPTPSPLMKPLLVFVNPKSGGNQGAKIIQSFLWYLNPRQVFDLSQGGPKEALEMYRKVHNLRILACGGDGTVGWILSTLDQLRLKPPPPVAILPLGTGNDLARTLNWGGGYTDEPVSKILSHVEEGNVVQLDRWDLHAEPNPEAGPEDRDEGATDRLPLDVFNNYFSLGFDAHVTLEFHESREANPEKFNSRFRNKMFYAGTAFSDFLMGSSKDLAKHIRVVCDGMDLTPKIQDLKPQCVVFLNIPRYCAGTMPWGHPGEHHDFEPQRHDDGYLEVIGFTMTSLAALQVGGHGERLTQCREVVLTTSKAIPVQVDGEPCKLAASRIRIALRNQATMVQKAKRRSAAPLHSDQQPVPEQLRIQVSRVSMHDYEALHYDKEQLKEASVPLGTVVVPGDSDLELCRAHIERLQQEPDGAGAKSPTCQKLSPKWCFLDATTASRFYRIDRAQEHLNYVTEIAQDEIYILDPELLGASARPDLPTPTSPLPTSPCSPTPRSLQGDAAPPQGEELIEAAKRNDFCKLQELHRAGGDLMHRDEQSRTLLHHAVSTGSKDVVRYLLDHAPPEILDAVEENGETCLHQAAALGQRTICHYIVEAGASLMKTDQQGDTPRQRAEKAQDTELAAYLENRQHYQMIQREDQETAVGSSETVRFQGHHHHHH

| IC50 (DGKα) [µM] | IC50 (DGKζ) [µM] | Compound | EC50 (Human whole blood IFN-γ; 24 hours) [µM] | EC50 (Human whole blood IFN-γ; Homo sapiens, 24 h) [µM] |
| --- | --- | --- | --- | --- |
| 2.04 | 3.27 | C[C@@H]1CN(c2cc(=O)n(C)c3ccc(C#N)nc23)[C@@H](C)CN1C(C(=O)NCC(F)F)c1ccc(F)cc1 (stereo partly drawn) [Example 5, 2-((2R,5S)-4-(6-cyano-1-methyl-2-oxo-1,2-dihydro-1,5-naphthyridin-4-yl)-2,5-dimethylpiperazin-1-yl)-N-(2,2-difluoroethyl)-2-(4-fluorophenyl)acetamide] | – | – |
| 6.36 | 11.1 | C[C@@H]1CN(c2cc(=O)n(C)c3ccc(C#N)nc23)[C@@H](C)CN1C(CC(=O)NC(C)(C)C)c1ccc(F)cc1 (single isomer, unassigned) [Example 33] | – | – |
| 0.02 | 0.14 | C[C@@H]1CN(c2cc(=O)n(C)c3ccc(C#N)nc23)[C@@H](C)CN1C(C(=O)Nc1ccon1)c1ccc(F)cc1 (stereo partly drawn) [Example 30, 2-((2R,5S)-4-(6-cyano-1-methyl-2-oxo-1,2-dihydro-1,5-naphthyridin-4-yl)-2,5-dimethylpiperazin-1-yl)-2-(4-fluorophenyl)-N-(isoxazol-3-yl)acetamide] | – | – |
| 5.12 | 6.68 | C[C@@H]1CN(c2cc(=O)n(C)c3ccc(C#N)nc23)[C@@H](C)CN1C(C(=O)N1CCCCC1)c1ccc(F)cc1 (some centres unmarked) [Example 12] | – | – |
| 24.8 | 42.9 | C[C@@H]1CN(c2cc(=O)n(C)c3ccc(C#N)nc23)[C@@H](C)CN1C(C(=O)N1CCOCC1)c1ccc(F)cc1 (stereo partly drawn) [Example 18, 8-((2S,5R)-4-(1-(4-fluorophenyl)-2-morpholino-2-oxoethyl)-2,5-dimethylpiperazin-1-yl)-5-methyl-6-oxo-5,6-dihydro-1,5-naphthyridine-2-carbonitrile] | 20 | – |
| 37.1 | 172 | C[C@@H]1CN(c2cc(=O)n(C)c3ccc(C#N)nc23)[C@@H](C)CN1C(C(=O)N1CCN(C)CC1)c1ccc(F)cc1 (stereo partly drawn) [Example 19, 8-((2S,5R)-4-(1-(4-fluorophenyl)-2-(4-methylpiperazin-1-yl)-2-oxoethyl)-2,5-dimethylpiperazin-1-yl)-5-methyl-6-oxo-5,6-dihydro-1,5-naphthyridine-2-carbonitrile] | – | 3.44 |
| 0.51 | 1.22 | C[C@@H]1CN(c2cc(=O)n(C)c3ccc(C#N)nc23)[C@@H](C)CN1C(C(=O)N1CCCCC1)c1ccc(F)cc1 (single isomer, unassigned) [Example 11] | – | – |
| 4.04 | 6.84 | C[C@@H]1CN(c2cc(=O)n(C)c3ccc(C#N)nc23)[C@@H](C)CN1C(CC(=O)NC(C)(C)C)c1ccc(F)cc1 (single isomer, unassigned) [Example 34] | – | – |
| 2.56 | 7.75 | C[C@@H]1CN(c2cc(=O)n(C)c3ccc(C#N)nc23)[C@@H](C)CN1C(C(=O)N1CCOCC1)c1ccc(F)cc1 (stereo partly drawn) [Example 17, 8-((2S,5R)-4-(1-(4-fluorophenyl)-2-morpholino-2-oxoethyl)-2,5-dimethylpiperazin-1-yl)-5-methyl-6-oxo-5,6-dihydro-1,5-naphthyridine-2-carbonitrile] | 1.49 | – |
| 253 | 83.3 | C[C@@H]1CN(c2cc(=O)n(C)c3ccc(C#N)nc23)[C@@H](C)CN1C(C(=O)N1CCN(C)CC1)c1ccc(F)cc1 (stereo partly drawn) [Example 20, 8-((2S,5R)-4-(1-(4-fluorophenyl)-2-(4-methylpiperazin-1-yl)-2-oxoethyl)-2,5-dimethylpiperazin-1-yl)-5-methyl-6-oxo-5,6-dihydro-1,5-naphthyridine-2-carbonitrile] | – | – |

Continued, compound first:

| Compound | IC50 (DGKα) [µM] | IC50 (DGKζ) [µM] | EC50 (Human whole blood IFN-γ; 24 hours) [µM] | EC50 (Human whole blood IFN-γ; Homo sapiens, 24 h) [µM] |
| --- | --- | --- | --- | --- |
| C[C@@H]1CN(c2cc(=O)n(C)c3ccc(C#N)nc23)[C@@H](C)CN1C(C(=O)NCCOCCOCCNC(=O)c1ccc2c(c1)C(=O)OC21c2ccc(O)cc2Oc2cc(O)ccc21)c1ccc(F)cc1 (stereo partly drawn) [Example 65, N-(2-(2-(2-(2-((2R,5S)-4-(6-cyano-1-methyl-2-oxo-1,2-dihydro-1,5-naphthyridin-4-yl)-2,5-dimethylpiperazin-1-yl)-2-(4-fluorophenyl)acetamido)ethoxy)ethoxy)ethyl)-3′,6′-dihydroxy-3-oxo-3H-spiro[isobenzofuran-1,9′-xanthene]-5-carboxamide] | 96.5 | 56.6 | – | – |
| C[C@@H]1CN(c2cc(=O)n(C)c3ccc(C#N)nc23)[C@@H](C)CN1C(C(=O)OCCOCCOCCNC(=O)c1ccc2c(c1)C(=O)OC21c2ccc(O)cc2Oc2cc(O)ccc21)c1ccc(F)cc1 (stereo partly drawn) [Example 68, 2-(2-(2-(3′,6′-dihydroxy-3-oxo-3H-spiro[isobenzofuran-1,9′-xanthene]-5-carboxamido)ethoxy)ethoxy)ethyl 2-((2R,5S)-4-(6-cyano-1-methyl-2-oxo-1,2-dihydro-1,5-naphthyridin-4-yl)-2,5-dimethylpiperazin-1-yl)-2-(4-fluorophenyl)acetate] | 0.16 | 0.41 | – | – |
| CC(C(=O)NC1CCCC1)N1C[C@H](C)N(c2cc(=O)n(C)c3ccc(C#N)nc23)C[C@H]1C (single isomer, unassigned) [Example 43] | – | – | – | 20 |
| COC(=O)CC(c1ccc(F)cc1)N1C[C@H](C)N(c2cc(=O)n(C)c3ccc(C#N)nc23)C[C@H]1C (single isomer, unassigned) [Example 32] | – | – | 1.81 | – |
| COC(=O)C(c1ccc(F)cc1)N1C[C@H](C)N(c2cc(=O)n(C)c3ccc(C#N)nc23)C[C@H]1C (stereo partly drawn) [Example 7, Methyl 2-((2R,5S)-4-(6-cyano-1-methyl-2-oxo-1,2-dihydro-1,5-naphthyridin-4-yl)-2,5-dimethylpiperazin-1-yl)-2-(4-fluorophenyl)acetate] | – | – | – | 0.1 |
| C[C@@H]1CN(c2cc(=O)n(C)c3ccc(C#N)nc23)[C@@H](C)CN1C(C(=O)N1CCCC1)c1ccc(F)cc1 (stereo partly drawn) [Example 21, 8-((2S,5R)-4-(1-(4-fluorophenyl)-2-oxo-2-(pyrrolidin-1-yl)ethyl)-2,5-dimethylpiperazin-1-yl)-5-methyl-6-oxo-5,6-dihydro-1,5-naphthyridine-2-carbonitrile] | – | – | 2.56 | – |
| C[C@@H]1CN(c2cc(=O)n(C)c3ccc(C#N)nc23)[C@@H](C)CN1C(C(=O)O)c1ccc(F)cc1 (single isomer, unassigned) [Example 10] | – | – | – | 20 |
| CC(C(=O)NC1CCCC1)N1C[C@H](C)N(c2cc(=O)n(C)c3ccc(C#N)nc23)C[C@H]1C (single isomer, unassigned) [Example 44] | – | – | 20 | – |
| C[C@@H]1CN(c2cc(=O)n(C)c3ccc(C#N)nc23)[C@@H](C)CN1C(C(=O)N(C)C)c1ccc(F)cc1 (stereo partly drawn) [Example 24, 2-((2R,5S)-4-(6-cyano-1-methyl-2-oxo-1,2-dihydro-1,5-naphthyridin-4-yl)-2,5-dimethylpiperazin-1-yl)-2-(4-fluorophenyl)-N,N-dimethylacetamide] | – | – | 20 | – |
| C[C@@H]1CN(c2cc(=O)n(C)c3ccc(C#N)nc23)[C@@H](C)CN1C(C(N)=O)c1ccc(F)cc1 (stereo partly drawn) [Example 13, 2-((2R,5S)-4-(6-cyano-1-methyl-2-oxo-1,2-dihydro-1,5-naphthyridin-4-yl)-2,5-dimethylpiperazin-1-yl)-2-(4-fluorophenyl)acetamide] | – | – | – | 20 |
